Assay results: PubChem BioAssay AID248 (DTP/NCI, 2004)
“And” between values parts separate entries of the source, which are not always exact repeats. Equal entries are not always repeated. Toxic doses and inconclusive results are not listed.

Test system: L1210 leukemia ip in BDF1 mice, survival T/C
Experiment: NCI In Vivo Anticancer Drug Screen. Data for tumor model L1210 Leukemia (intraperitoneal) in B6D2F1 (BDF1) mice
Settings: endpoint: mean survival time, higher = longer survival
Outline: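 Survival endpoint. Drug-treated group vs vehicle group, expressed as T divided by C. Tumor passaged by transplantation.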

[1] = dose: 50.0 mg/kg/injection, schedule: Q01DX009 (ip), vehicle: saline with Tween-80
[2] = dose: 100.0 mg/kg/injection, schedule: Q04DX002 (ip), vehicle: saline with Tween-80
[3] = dose: 200.0 mg/kg/injection, schedule: Q04DX002 (ip), vehicle: saline with Tween-80
[4] = dose: 400.0 mg/kg/injection, schedule: Q04DX002 (ip), vehicle: saline with Tween-80
[5] = dose: 100.0 mg/kg/injection, schedule: Q01DX001 (ip), vehicle: saline
[6] = dose: 25.0 mg/kg/injection, schedule: Q01DX009 (ip), vehicle: saline
[7] = dose: 50.0 mg/kg/injection, schedule: Q01DX009 (ip), vehicle: saline
[8] = dose: 100.0 mg/kg/injection, schedule: Q01DX009 (ip), vehicle: saline
[9] = dose: 100.0 mg/kg/injection, schedule: Q04DX003 (ip), vehicle: saline
[10] = dose: 100.0 mg/kg/injection, schedule: Q04DX003 (ip), vehicle: Klucel (hydroxypropylcellulose) (HPC)
[11] = dose: 200.0 mg/kg/injection, schedule: Q04DX003 (ip), vehicle: Klucel (hydroxypropylcellulose) (HPC)
[12] = dose: 400.0 mg/kg/injection, schedule: Q04DX003 (ip), vehicle: Klucel (hydroxypropylcellulose) (HPC)
[13] = dose: 100.0 mg/kg/injection, schedule: Q01DX009 (ip), vehicle: saline with Tween-80
[14] = dose: 200.0 mg/kg/injection, schedule: Q04DX003 (ip), vehicle: saline
[15] = dose: 400.0 mg/kg/injection, schedule: Q04DX003 (ip), vehicle: saline
[16] = dose: 200.0 mg/kg/injection, schedule: Q01DX009 (ip), vehicle: saline
[17] = dose: 400.0 mg/kg/injection, schedule: Q01DX009 (ip), vehicle: saline

CNc1nc(Nc2ccc(C3=NCCN3)cc2)nc(Nc2ccc(C3=NCCN3)cc2)n1
T/C (dose: 1.25 mg/kg/injection, schedule: Q01DX015 (ip), vehicle: water): 96 % of control | T/C (dose: 2.5 mg/kg/injection, schedule: Q01DX015 (ip), vehicle: water): 96 % of control | T/C (dose: 5.0 mg/kg/injection, schedule: Q01DX015 (ip), vehicle: water): 105 % of control | T/C (dose: 7.5 mg/kg/injection, schedule: Q01DX015 (ip), vehicle: water): 152 % of control | T/C (dose: 10.0 mg/kg/injection, schedule: Q01DX015 (ip), vehicle: water): 102 % of control | T/C (dose: 12.5 mg/kg/injection, schedule: Q01DX001 (ip), vehicle: water): 105 % of control | T/C (dose: 13.3 mg/kg/injection, schedule: Q01DX Z (ip), vehicle: saline): 115 % of control | T/C (dose: 15.0 mg/kg/injection, schedule: Q01DX015 (ip), vehicle: water): 106 % of control | T/C (dose: 20.0 mg/kg/injection, schedule: Q01DX Z (ip), vehicle: saline): 121 % of control | T/C (dose: 25.0 mg/kg/injection, schedule: Q01DX001 (ip), vehicle: water): 103 % of control | T/C (dose: 30.0 mg/kg/injection, schedule: Q01DX015 (ip), vehicle: water): 121 % of control | T/C (dose: 50.0 mg/kg/injection, schedule: Q01DX001 (ip), vehicle: water): 100 % of control | T/C (dose: 60.0 mg/kg/injection, schedule: Q01DX Z (oral), vehicle: carboxymethylcellulose (CMC)): 105 % of control | T/C (dose: 75.0 mg/kg/injection, schedule: Q01DX001 (ip), vehicle: water): 115 % of control | T/C (dose: 120.0 mg/kg/injection, schedule: Q01DX Z (oral), vehicle: carboxymethylcellulose (CMC)): 109 % of control | T/C (dose: 240.0 mg/kg/injection, schedule: Q01DX Z (oral), vehicle: carboxymethylcellulose (CMC)): 96 % of control | T/C (dose: 480.0 mg/kg/injection, schedule: Q01DX Z (oral), vehicle: carboxymethylcellulose (CMC)): 100 % of control

O=C1C=CC(=Nc2cc(Cl)c(O)c(Cl)c2)C(Cl)=C1
T/C (dose: 12.5 mg/kg/injection, schedule: Q01DX009 (ip), vehicle: Klucel (hydroxypropylcellulose) (HPC)): 96 % of control | T/C (dose: 25.0 mg/kg/injection, schedule: Q01DX009 (ip), vehicle: Klucel (hydroxypropylcellulose) (HPC)): 96 % of control | T/C (dose: 50.0 mg/kg/injection, schedule: Q01DX009 (ip), vehicle: Klucel (hydroxypropylcellulose) (HPC)): 92 % of control

CC(C)(C)NC(=O)Oc1ccccc1C(=O)Nc1ccccc1
T/C [1]: 97 % of control and 103 % of control | T/C [2]: 101 % of control and 103 % of control | T/C [3]: 95 % of control and 98 % of control | T/C [4]: 92 % of control

CCN(CC)CCC(=O)c1ccc2oc3ccccc3c2c1
T/C (dose: 12.0 mg/kg/injection, schedule: Q01DX001 (ip), vehicle: saline): 100 % of control | T/C (dose: 25.0 mg/kg/injection, schedule: Q01DX001 (ip), vehicle: saline): 90 % of control | T/C (dose: 50.0 mg/kg/injection, schedule: Q01DX001 (ip), vehicle: saline): 103 % of control | T/C [5]: 113 % of control

Cc1c[n+]([O-])ccc1[N+](=O)[O-]
T/C [6]: 90 % of control | T/C (dose: 25.0 mg/kg/injection, schedule: Q04DX003 (ip), vehicle: saline): 105 % of control | T/C [7]: 90 % of control | T/C (dose: 50.0 mg/kg/injection, schedule: Q04DX003 (ip), vehicle: saline): 97 % of control | T/C [8]: 88 % of control | T/C [9]: 90 % of control and 91 % of control

Cc1ccc(NC(=O)N2CCN(c3ccccc3)CC2)c([N+](=O)[O-])c1
T/C [10]: 96 % of control | T/C [11]: 102 % of control | T/C [12]: 91 % of control

O=CNc1ncnn1C(=S)NCc1ccccc1
T/C [7]: 105 % of control | T/C [8]: 111 % of control

O=S(=O)(Nc1ccc(Cl)cc1Cl)c1ccccc1
T/C [10]: 103 % of control | T/C [11]: 103 % of control | T/C [12]: 103 % of control

CCC(=Nc1ccccc1)Nc1ccccc1
T/C (dose: 100.0 mg/kg/injection, schedule: Q04DX002 (ip), vehicle: Klucel (hydroxypropylcellulose) (HPC)): 106 % of control | T/C (dose: 200.0 mg/kg/injection, schedule: Q04DX002 (ip), vehicle: Klucel (hydroxypropylcellulose) (HPC)): 106 % of control | T/C (dose: 400.0 mg/kg/injection, schedule: Q04DX002 (ip), vehicle: Klucel (hydroxypropylcellulose) (HPC)): 109 % of control

CC(C)(C)C1CSC(c2ccccc2)SC1 (configuration not stated)
T/C (dose: 12.5 mg/kg/injection, schedule: Q04DX002 (ip), vehicle: Klucel (hydroxypropylcellulose) (HPC)): 98 % of control | T/C (dose: 25.0 mg/kg/injection, schedule: Q04DX002 (ip), vehicle: Klucel (hydroxypropylcellulose) (HPC)): 92 % of control | T/C (dose: 50.0 mg/kg/injection, schedule: Q04DX002 (ip), vehicle: Klucel (hydroxypropylcellulose) (HPC)): 98 % of control

COc1ccc(Cl)cc1NC(=O)/C=C/c1ccccc1
T/C (dose: 100.0 mg/kg/injection, schedule: Q01DX001 (ip), vehicle: saline with Tween-80): 95 % of control | T/C [13]: 89 % of control | T/C [2]: 98 % of control and 90 % of control | T/C (dose: 200.0 mg/kg/injection, schedule: Q01DX001 (ip), vehicle: saline with Tween-80): 92 % of control | T/C (dose: 200.0 mg/kg/injection, schedule: Q01DX009 (ip), vehicle: saline with Tween-80): 95 % of control and 89 % of control | T/C [3]: 96 % of control and 91 % of control | T/C (dose: 400.0 mg/kg/injection, schedule: Q01DX009 (ip), vehicle: saline with Tween-80): 92 % of control | T/C [4]: 94 % of control and 86 % of control

CC(=Nc1ccccc1)NO
T/C (dose: 50.0 mg/kg/injection, schedule: Q01DX009 (ip), vehicle: acetone): 94 % of control | T/C (dose: 100.0 mg/kg/injection, schedule: Q01DX009 (ip), vehicle: acetone): 97 % of control | T/C [9]: 96 % of control | T/C (dose: 200.0 mg/kg/injection, schedule: Q01DX009 (ip), vehicle: acetone): 100 % of control | T/C [14]: 108 % of control | T/C [15]: 96 % of control

C=C1C(=O)CCC1C(=O)O (configuration not stated)
T/C [8]: 101 % of control | T/C [16]: 110 % of control | T/C [17]: 112 % of control

CNC(=O)O/N=C/c1ccc([N+](=O)[O-])cc1
T/C (dose: 75.0 mg/kg/injection, schedule: Q01DX001 (ip), vehicle: saline): 94 % of control | T/C (dose: 150.0 mg/kg/injection, schedule: Q01DX001 (ip), vehicle: saline): 100 % of control

CC(C)/C(=N\N=C(\c1ccccc1)C(C)C)c1ccccc1
T/C [2]: 94 % of control | T/C [3]: 87 % of control | T/C [4]: 97 % of control

CCCC1(c2ccccc2)C(C#N)C(=O)NC(=O)C1C#N (configuration not stated)
T/C [5]: 101 % of control | T/C (dose: 200.0 mg/kg/injection, schedule: Q01DX001 (ip), vehicle: saline): 97 % of control

O=NN(CCCl)C(=O)NC12CC3CC(CC(C3)C1)C2
T/C (dose: 62.0 mg/kg/injection, schedule: Q01DX001 (ip), vehicle: carboxymethylcellulose (CMC)): 270 % of control | T/C (dose: 93.0 mg/kg/injection, schedule: Q01DX001 (ip), vehicle: carboxymethylcellulose (CMC)): 250 % of control | T/C (dose: 125.0 mg/kg/injection, schedule: Q01DX001 (ip), vehicle: carboxymethylcellulose (CMC)): 255 % of control | T/C (dose: 187.0 mg/kg/injection, schedule: Q01DX001 (ip), vehicle: carboxymethylcellulose (CMC)): 182 % of control

CCN(C(=O)CCl)c1ccccc1C
T/C [1]: 91 % of control | T/C [13]: 100 % of control

COc1ccc2c(c1)CN(S(=O)(=O)c1ccc(C)cc1)CC/C2=N\O
T/C [8]: 94 % of control | T/C [16]: 94 % of control | T/C [17]: 104 % of control

O=c1ccccn1CCc1ccccc1
T/C (dose: 12.5 mg/kg/injection, schedule: Q04DX003 (ip), vehicle: saline with Tween-80): 95 % of control | T/C (dose: 25.0 mg/kg/injection, schedule: Q04DX003 (ip), vehicle: saline with Tween-80): 101 % of control | T/C (dose: 50.0 mg/kg/injection, schedule: Q04DX003 (ip), vehicle: saline with Tween-80): 97 % of control

CCOC(=O)N(C)C1CCC1NC (configuration not stated)
T/C [9]: 98 % of control | T/C [14]: 112 % of control | T/C [15]: 104 % of control

CC(C)NCCC(=O)c1ccc(OCc2ccccc2)cc1
T/C [6]: 106 % of control | T/C [7]: 110 % of control | T/C [8]: 106 % of control and 119 % of control

CCCCCCCCCCCCCCCc1cc(=O)n(-c2ccc(NC(=O)/C=C/C(=O)O)cc2)n1C
T/C [10]: 98 % of control | T/C [11]: 94 % of control
